According to patent US20140030368A1, “COMPOSITION FOR PREVENTING OR TREATING A RESPIRATORY DISEASE CONTAINING A MIXED HERBAL EXTRACT OF CNIDIUM OFFICINALE ROOT AND POLYGONI CUSPIDATI ROOT” (WHANIN PHARMACEUTICAL CO., LTD., priority 2011, published 2014):

Columns and labels:
IL-4 (interleukin-4) = test: T cell-derived cytokine from lung tissue, ovalbumin-induced asthma/COPD model; type: in vivo, mice
Protocol: In order to examine whether the extract of the present invention has the effect of inhibiting adaptive immune responses in an ovalbumin (OVA)-induced asthma/chronic obstructive pulmonary disease model, the content of T cell-derived cytokines isolated from lung tissue was measured (see Seong Gyu Jeon et al., J. Allergy Clin. Immunol., 2007, 119, 831-837).
Specifically, a mixture of 75 μg of ovalbumin (OVA, Sigma) and 2 mg of aluminum hydroxide (Alum, Sigma) was intraperitoneally administered twice (days 0 and 7) into BALB/c female mice (6 weeks old; provided from Animal Laboratory in Biotech Center, Pohang University of Science & Technology) to sensitize the mice. At 14, 15 and 21 days after the first sensitization date, 50 μg of ovalbumin in PBS was challenged into the nasal cavity to induce asthma and chronic obstructive pulmonary disease. […]
Then, the lung tissue was finely cut with a blade and incubated with 5 ml of 1× Trypsin-EDTA and 1000 units of chollagenase at 37° C. for 10 […]. […] Then, the supernatant was collected, and the amount of cytokine IL-4 (interleukin-4) in the supernatant was measured using an ELISA (enzyme-linked immunosorbent assay).

[1] = test system: IP-10 (interferon-gamma inducible protein-10); test: Inflammatory mediator in bronchoalveolar lavage, LPS-induced asthma/COPD model (ELISA); type: in vivo, mice; conditions: ovalbumin + LPS model
Protocol: In order to examine whether the extract of the present invention has the effect of inhibiting inflammatory mediators in a bronchoalveolar lavage in an LPS-induced asthma/chronic obstructive pulmonary disease model, the expression pattern of the inflammatory mediator IP-10 (interferon-gamma inducible protein-10) in the bronchoalveolar lavage obtained in Test Example 7-2 was measured using an ELISA assay, and the results of the measurement are shown in Table 10 below.

[2] = test system: anti-E. coli-EV-specific IgG2a; test: Antigen-specific antibody in serum, E. coli-EV-induced model (ELISA); type: in vivo, mice
Protocol: (§1) In order to examine whether the extract of the present invention has the ability to produce an antigen-specific antibody in an E. coli-EV-induced asthma/chronic obstructive pulmonary disease model, the E. coli-EV-induced asthma/chronic obstructive pulmonary disease model was prepared by treatment with each of the extract of Example 2 and a comparative drug in the same manner as described in Test Example 8-1. At 48 hours after the final challenge, the mice were anesthetized by intraperitoneal injection with ketamine and xylazine. Then, blood was collected from the heart using a 1 ml syringe, and serum was separated from the blood by centrifugation. Then, anti-E. coli-EV-specific IgG1 and IgG2a antibodies in the serum were measured according to an ELISA assay, and the results of the measurement are shown in Table 15 below.

[3] = test system: anti-E. coli-EV-specific IgG1; test: as above; type: in vivo, mice
Protocol: as §1

[4] = test system: invasion of inflammatory cells into lung tissue; test: Invasion of inflammatory cells into lung tissue, LPS-induced asthma/COPD model (H&E score); type: in vivo, mice; conditions: ovalbumin + LPS model
Protocol: Then, the lung was isolated, embedded with paraffin, sectioned to a thickness of […], and stained with H&E (hematoxylin-eosin). The invasion of inflammatory cells into a portion surrounding the airway was measured (see FIG. 3), and the inflammations of the airway and the pulmonary parenchyma were compared and scored.

[5] = test system: co-stimulatory molecules CD40, CD80, CD86 and MHCII; test: Co-stimulatory molecules in lung dendritic cells, E. coli-EV-induced model (FACS); type: in vivo, mice; conditions: 1 mg/kg twice a day, FIG. 5
Protocol: In order to examine whether the extract of the present invention has the effect of inhibiting the expression of co-stimulatory molecules in dendritic cells isolated from the lung tissue of an E. coli-EV-induced asthma/chronic obstructive pulmonary disease model, the following test was performed.
Specifically, a portion of the lung tissue obtained in Test Example 8-4 was cut finely with a blade, and then incubated with 5 ml of 1× Trypsin-EDTA and 1000 units of collagenase at 37 °C for 10 minutes. Then, the tissue was passed through a 100 μm mesh to collect only immune cells, and the cells were double-stained with each of the dendritic cell marker CD11c and the co-stimulatory molecules CD40, CD80, CD86 and MHCII (major histocompatibility complex II). Next, the expression levels of the co-stimulatory molecules in the dendritic cells were measured using FACS (fluorescence activated cell sorter), and the results of the measurement are shown in FIG. 5.

IL-17 = test: T cell-derived cytokine from lung tissue, E. coli-EV-induced model (ELISA); type: in vivo, mice
Protocol: (§2) In order to examine whether the extract of the present invention has the effect of inhibiting T cell-derived cytokine isolated from the lung tissue of an E. coli-EV-derived asthma/chronic obstructive pulmonary disease model, the following test was performed.
(§3) Specifically, the […] asthma/chronic obstructive pulmonary disease model was prepared by treatment with each of the extract of Example 2 and a comparative drug in the same manner as described in Test Example 8-1. At 6 hours after the final challenge, the mice were anesthetized by intraperitoneal injection with ketamine and xylazine, and lung tissue was obtained from the mice. The lung tissue was cut finely with a blade and incubated with 5 ml of 1× Trypsin-EDTA and 1000 units of chollagenase at 37 °C for 10 minutes. Then, the tissue was passed through a 100 μm mesh to collect only immune cells. To stimulate T cells among the collected cells, 1×10^5 cells and anti-CD28 (1 μg/ml) were added to a 96-well plate coated with anti-CD3 (1 μg/ml) and were incubated in an incubator at 37° C. for 12 hours. Next, the supernatant was collected, and the amounts of cytokines in the supernatant were measured using an ELISA assay.

IFN-γ = test: as above; type: in vivo, mice
Protocol: as §2, §3

5-lipoxygenase = target: T1, 5-lipoxygenase (Rattus norvegicus, UniProt P12527); test: 5-Lipoxygenase inhibitory activity (leukotriene production in RBL-1 cells, cysteinyl leukotriene EIA); type: cell-based; conditions: 2 μM; RBL-1 cells; read-out: 5-lipoxygenase inhibition rate(%)
T1 construct: rat basophilic leukemia cells (RBL-1) were stabilized using serum-free RPMI medium; endogenous in cells; host or cells: RBL-1 (rat basophilic leukemia cells)
T1 sequence (P12527 whole entry): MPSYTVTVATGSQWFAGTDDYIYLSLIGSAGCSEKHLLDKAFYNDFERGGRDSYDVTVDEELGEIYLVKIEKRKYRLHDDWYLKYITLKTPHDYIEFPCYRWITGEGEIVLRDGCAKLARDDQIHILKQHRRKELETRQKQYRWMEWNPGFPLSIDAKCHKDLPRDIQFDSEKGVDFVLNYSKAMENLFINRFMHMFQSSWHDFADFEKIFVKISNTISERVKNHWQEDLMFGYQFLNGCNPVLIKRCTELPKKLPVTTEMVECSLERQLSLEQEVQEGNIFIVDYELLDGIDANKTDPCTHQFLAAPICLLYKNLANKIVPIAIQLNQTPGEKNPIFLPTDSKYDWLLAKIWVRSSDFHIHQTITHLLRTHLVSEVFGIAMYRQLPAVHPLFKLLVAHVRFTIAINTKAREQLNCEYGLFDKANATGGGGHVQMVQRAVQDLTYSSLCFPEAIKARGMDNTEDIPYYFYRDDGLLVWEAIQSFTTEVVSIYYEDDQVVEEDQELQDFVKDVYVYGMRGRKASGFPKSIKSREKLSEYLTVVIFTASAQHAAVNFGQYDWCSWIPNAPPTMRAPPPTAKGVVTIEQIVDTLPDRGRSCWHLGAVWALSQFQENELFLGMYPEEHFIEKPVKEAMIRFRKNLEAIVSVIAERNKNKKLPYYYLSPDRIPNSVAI
Protocol: Specifically, rat basophilic leukemia cells (RBL-1) were stabilized using serum-free RPMI medium at 37° C., and each of the extracts and arachidonic acid as a substrate were added thereto and incubated for 15 minutes to produce leukotriene. The amount of the produced leukotriene was measured using a cysteinyl leukotriene EIA kit. As comparative drugs, the 5-lipoxygenase inhibitors zileuton and montelukast were used.

[6] = test system: airway constriction of the sensitized guinea pigs; test: Test for airway constriction inhibition (in vivo), airway resistance AUC after ovalbumin aerosol; conditions: oral dose 10 mg/kg

C[C@@H]1C[C@H]2[C@@H]3CCC4=CC(=O)C=C[C@]4(C)[C@@]3(F)[C@@H](O)C[C@]2(C)[C@@]1(O)C(=O)CO [Dexamethason, dexamethason]
IL-4 inhibition rate (%) (IL-4 (interleukin-4); 1 mg/kg b.i.d. oral): 43.57%
IP-10 inhibition rate (%) ([1]; 1 mg/kg b.i.d.): 4.09%
Inhibition rate(%) IgG2a ([2]; 1 mg/kg b.i.d.): 55.7%
Inhibition rate(%) IgG1 ([3]; 1 mg/kg b.i.d.): 93.8%
Inhibition rate (%) of invasion of inflammatory cells into lung tissue ([4]; 1 mg/kg b.i.d.): 28.87%
expression levels of the co-stimulatory molecules in the dendritic cells [5]: a decrease in the expression of CD86 and MHCII
IL-17 inhibition rate (%) (IL-17; 1 mg/kg b.i.d.): 1.12%
IFN-γ inhibition rate (%) (IFN-γ; 1 mg/kg b.i.d.): 1.13%

CC(C)(O)c1ccccc1CC[C@@H](SCC1(CC(=O)O)CC1)c1cccc(/C=C/c2ccc3ccc(Cl)cc3n2)c1 [montelukast]
IL-4 inhibition rate (%) (IL-4 (interleukin-4); 10 mg/kg b.i.d. oral): 14.07%
IP-10 inhibition rate (%) ([1]; 10 mg/kg b.i.d.): 1.80%
Inhibition rate(%) IgG2a ([2]; 10 mg/kg b.i.d.): 27.2%
Inhibition rate(%) IgG1 ([3]; 10 mg/kg b.i.d.): 59.7%
Inhibition rate (%) of invasion of inflammatory cells into lung tissue ([4]; 10 mg/kg b.i.d.): 8.25%
inhibition at 2 µM (5-lipoxygenase): 45%
IL-17 inhibition rate (%) (IL-17; 10 mg/kg b.i.d.): 0.22%
IFN-γ inhibition rate (%) (IFN-γ; 10 mg/kg b.i.d.): 0.23%
Airway constriction inhibition rate (%) [6]: 53%
